# Test results reported in patent publication US20260166128A1, “HUMAN AMYLIN ANALOG, AND DERIVATIVE THEREOF AND USE THEREOF” (priority 2022, published 2026).
# Numbered stars: 1 amine (or outer) side, 2 acyl side, 3 side chain; on linkers, the order of the positions; unused ones are H or OH. Bridge positions count the residues as written; N and C are the ends. Square brackets hold non-standard residues; d marks the D form. Side chains are listed from the residue outwards. Peptide text beside a SMILES is read from it. * marks the point of attachment. C20 diacid = O=C(O)CCCCCCCCCCCCCCCCCCC(=O)*; C18 diacid = O=C(O)CCCCCCCCCCCCCCCCC(=O)*; γGlu = O=C(O)[C@H](CCC(=O)[*:2])N[*:1]; Hyp = O=C(O)[C@@H]1C[C@@H](O)CN1; AEEA = NCCOCCOCC(=O)O
# Biological target: T1, human amylin receptor (Homo sapiens, UniProt O60896+P30988)
# T1 construct: host or cells: CHO-K1/Ga15/AMY3 cells, further stably transfected with a CRE-luciferase plasmid
# T1 sequence (P30988 25-474): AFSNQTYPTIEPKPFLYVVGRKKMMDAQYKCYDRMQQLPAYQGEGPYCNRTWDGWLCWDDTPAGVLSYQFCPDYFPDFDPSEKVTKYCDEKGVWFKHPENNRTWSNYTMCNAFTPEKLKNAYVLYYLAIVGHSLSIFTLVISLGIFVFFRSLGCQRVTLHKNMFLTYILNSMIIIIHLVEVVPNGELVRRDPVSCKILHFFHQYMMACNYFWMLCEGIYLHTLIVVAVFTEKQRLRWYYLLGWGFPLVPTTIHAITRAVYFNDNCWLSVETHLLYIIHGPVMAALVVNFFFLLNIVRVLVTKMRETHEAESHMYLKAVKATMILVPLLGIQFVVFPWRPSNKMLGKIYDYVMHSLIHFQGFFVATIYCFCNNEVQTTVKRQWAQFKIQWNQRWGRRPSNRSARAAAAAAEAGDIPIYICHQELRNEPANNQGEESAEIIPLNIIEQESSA
# T1 sequence (O60896 24-148 partner): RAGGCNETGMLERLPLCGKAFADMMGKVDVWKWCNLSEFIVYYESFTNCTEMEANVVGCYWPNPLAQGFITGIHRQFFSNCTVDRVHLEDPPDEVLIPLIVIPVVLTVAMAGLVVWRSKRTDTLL
# Assay: Luciferase assay of amylin derivatives in amylin receptor/CRE-luc CHO cell line
# Assay type: cell-based
# Conditions: CHO-K1/Ga15/AMY3 CRE-luc cells, 24 hours incubation, F12 medium containing 10% FBS; read-out: EC50
# Protocol: The experiment was intended to detect the activity or efficacy of the amylin derivatives on a human amylin receptor in vitro by luciferase assay.
# 50 μL of growth medium (F12 medium containing 10% FBS) was added into each well of a white 96-well plate, and the stably transfected amylin/CRE-lue CHO cells were inoculated into the white 96-well plate at a density of about 20,000 cells/well for activity determination.
row,Compound,EC50 [nM]
1,CC[C@H](C)[C@H](NC(=O)[C@@H]1CCCN1C(=O)CNC(=O)[C@H](CC(C)C)NC(=O)[C@H](CCCCNC(=O)CC[C@H](NC(=O)CCCCCCCCCCCCCCCCCCC(=O)O)C(=O)O)NC(=O)[C@H](CC(N)=O)NC(=O)[C@H](CO)NC(=O)[C@H](CO)NC(=O)[C@H](Cc1c[nH]cn1)NC(=O)[C@H](CCCNC(=N)N)NC(=O)[C@H](CC(C)C)NC(=O)[C@H](Cc1ccccc1)NC(=O)[C@H](CC(=O)O)NC(=O)[C@H](C)NC(=O)[C@H](CC(C)C)NC(=O)[C@H](CCCNC(=N)N)NC(=O)[C@H](CCC(N)=O)NC(=O)[C@@H](NC(=O)[C@H](C)NC(=O)[C@@H]1CSSC[C@H](NC(=O)[C@@H](N)CCCNC(=N)N)C(=O)N[C@@H](CC(N)=O)C(=O)N[C@@H]([C@@H](C)O)C(=O)N[C@@H](C)C(=O)N[C@@H]([C@@H](C)O)C(=O)N1)[C@@H](C)O)C(=O)N[C@@H](CC(C)C)C(=O)N1CCC[C@H]1C(=O)N1CCC[C@H]1C(=O)N[C@H](C(=O)N[C@@H](CC(N)=O)C(=O)N[C@H](C(=O)NCC(=O)N[C@@H](CO)C(=O)N[C@@H](CC(N)=O)C(=O)N[C@H](C(=O)N1C[C@H](O)C[C@H]1C(N)=O)[C@@H](C)O)C(C)C)[C@@H](C)O [PD086] (H-RCNTATCATQRLADFLRHSSNK([γGlu-C20 diacid])LGPILPPTNVGSNT[Hyp]-NH2; disulfide 2-7),0.033
2,CC[C@H](C)[C@H](NC(=O)[C@@H]1CCCN1C(=O)CNC(=O)[C@H](CC(C)C)NC(=O)[C@H](CCCCNC(=O)COCCOCCNC(=O)COCCOCCNC(=O)CC[C@H](NC(=O)CCCCCCCCCCCCCCCCC(=O)O)C(=O)O)NC(=O)[C@H](CC(N)=O)NC(=O)[C@H](CO)NC(=O)[C@H](CO)NC(=O)[C@H](Cc1c[nH]cn1)NC(=O)[C@H](CCCNC(=N)N)NC(=O)[C@H](CC(C)C)NC(=O)[C@H](Cc1ccccc1)NC(=O)[C@H](CC(=O)O)NC(=O)[C@H](C)NC(=O)[C@H](CC(C)C)NC(=O)[C@H](CCCNC(=N)N)NC(=O)[C@H](CCC(N)=O)NC(=O)[C@@H](NC(=O)[C@H](C)NC(=O)[C@@H]1CSSC[C@H](NC(=O)[C@@H](N)CCCNC(=N)N)C(=O)N[C@@H](CC(N)=O)C(=O)N[C@@H]([C@@H](C)O)C(=O)N[C@@H](C)C(=O)N[C@@H]([C@@H](C)O)C(=O)N1)[C@@H](C)O)C(=O)N[C@@H](CC(C)C)C(=O)N1CCC[C@H]1C(=O)N1CCC[C@H]1C(=O)N[C@H](C(=O)N[C@@H](CC(N)=O)C(=O)N[C@H](C(=O)NCC(=O)N[C@@H](CO)C(=O)N[C@@H](CC(N)=O)C(=O)N[C@H](C(=O)N1C[C@H](O)C[C@H]1C(N)=O)[C@@H](C)O)C(C)C)[C@@H](C)O [PD089] (H-RCNTATCATQRLADFLRHSSNK([AEEA-AEEA-γGlu-C18 diacid])LGPILPPTNVGSNT[Hyp]-NH2; disulfide 2-7),0.018
3,CC[C@H](C)[C@H](NC(=O)[C@@H]1CCCN1C(=O)CNC(=O)[C@H](CC(C)C)NC(=O)[C@H](CC(N)=O)NC(=O)[C@H](CCCCNC(=O)CC[C@H](NC(=O)CCCCCCCCCCCCCCCCCCC(=O)O)C(=O)O)NC(=O)[C@H](CO)NC(=O)[C@H](CO)NC(=O)[C@H](Cc1c[nH]cn1)NC(=O)[C@H](CCCNC(=N)N)NC(=O)[C@H](CC(C)C)NC(=O)[C@H](Cc1ccccc1)NC(=O)[C@H](CC(=O)O)NC(=O)[C@H](C)NC(=O)[C@H](CC(C)C)NC(=O)[C@H](CCCNC(=N)N)NC(=O)[C@H](CCC(N)=O)NC(=O)[C@@H](NC(=O)[C@H](C)NC(=O)[C@@H]1CSSC[C@H](NC(=O)[C@@H](N)CCCNC(=N)N)C(=O)N[C@@H](CC(N)=O)C(=O)N[C@@H]([C@@H](C)O)C(=O)N[C@@H](C)C(=O)N[C@@H]([C@@H](C)O)C(=O)N1)[C@@H](C)O)C(=O)N[C@@H](CC(C)C)C(=O)N1CCC[C@H]1C(=O)N1CCC[C@H]1C(=O)N[C@H](C(=O)N[C@@H](CC(N)=O)C(=O)N[C@H](C(=O)NCC(=O)N[C@@H](CO)C(=O)N[C@@H](CC(N)=O)C(=O)N[C@H](C(=O)N1C[C@H](O)C[C@H]1C(N)=O)[C@@H](C)O)C(C)C)[C@@H](C)O [PD090] (H-RCNTATCATQRLADFLRHSSK([γGlu-C20 diacid])NLGPILPPTNVGSNT[Hyp]-NH2; disulfide 2-7),0.031
4,CC[C@H](C)[C@H](NC(=O)[C@@H]1CCCN1C(=O)CNC(=O)[C@H](CC(C)C)NC(=O)[C@H](CC(N)=O)NC(=O)[C@H](CCCCNC(=O)COCCOCCNC(=O)COCCOCCNC(=O)CC[C@H](NC(=O)CCCCCCCCCCCCCCCCCCC(=O)O)C(=O)O)NC(=O)[C@H](CO)NC(=O)[C@H](CO)NC(=O)[C@H](Cc1c[nH]cn1)NC(=O)[C@H](CCCNC(=N)N)NC(=O)[C@H](CC(C)C)NC(=O)[C@H](Cc1ccccc1)NC(=O)[C@H](CC(=O)O)NC(=O)[C@H](C)NC(=O)[C@H](CC(C)C)NC(=O)[C@H](CCCNC(=N)N)NC(=O)[C@H](CCC(N)=O)NC(=O)[C@@H](NC(=O)[C@H](C)NC(=O)[C@@H]1CSSC[C@H](NC(=O)[C@@H](N)CCCNC(=N)N)C(=O)N[C@@H](CC(N)=O)C(=O)N[C@@H]([C@@H](C)O)C(=O)N[C@@H](C)C(=O)N[C@@H]([C@@H](C)O)C(=O)N1)[C@@H](C)O)C(=O)N[C@@H](CC(C)C)C(=O)N1CCC[C@H]1C(=O)N1CCC[C@H]1C(=O)N[C@H](C(=O)N[C@@H](CC(N)=O)C(=O)N[C@H](C(=O)NCC(=O)N[C@@H](CO)C(=O)N[C@@H](CC(N)=O)C(=O)N[C@H](C(=O)N1C[C@H](O)C[C@H]1C(N)=O)[C@@H](C)O)C(C)C)[C@@H](C)O [PD091] (H-RCNTATCATQRLADFLRHSSK([AEEA-AEEA-γGlu-C20 diacid])NLGPILPPTNVGSNT[Hyp]-NH2; disulfide 2-7),0.03

# These reach a lower EC50. Values come first.
row,EC50 [nM],Compound
1,0.008,CC[C@H](C)[C@H](NC(=O)[C@@H]1CCCN1C(=O)CNC(=O)[C@H](CCCCNC(=O)CC[C@H](NC(=O)CCCCCCCCCCCCCCCCC(=O)O)C(=O)O)NC(=O)[C@H](CC(N)=O)NC(=O)[C@H](CC(N)=O)NC(=O)[C@H](CO)NC(=O)[C@H](CO)NC(=O)[C@H](Cc1c[nH]cn1)NC(=O)[C@H](CCCNC(=N)N)NC(=O)[C@H](CC(C)C)NC(=O)[C@H](Cc1ccccc1)NC(=O)[C@H](CC(=O)O)NC(=O)[C@H](C)NC(=O)[C@H](CC(C)C)NC(=O)[C@H](CCCNC(=N)N)NC(=O)[C@H](CCC(N)=O)NC(=O)[C@@H](NC(=O)[C@H](C)NC(=O)[C@@H]1CSSC[C@H](NC(=O)[C@@H](N)CCCNC(=N)N)C(=O)N[C@@H](CC(N)=O)C(=O)N[C@@H]([C@@H](C)O)C(=O)N[C@@H](C)C(=O)N[C@@H]([C@@H](C)O)C(=O)N1)[C@@H](C)O)C(=O)N[C@@H](CC(C)C)C(=O)N1CCC[C@H]1C(=O)N1CCC[C@H]1C(=O)N[C@H](C(=O)N[C@@H](CC(N)=O)C(=O)N[C@H](C(=O)NCC(=O)N[C@@H](CO)C(=O)N[C@@H](CC(N)=O)C(=O)N[C@H](C(=O)N1C[C@H](O)C[C@H]1C(N)=O)[C@@H](C)O)C(C)C)[C@@H](C)O [PD084] (H-RCNTATCATQRLADFLRHSSNNK([γGlu-C18 diacid])GPILPPTNVGSNT[Hyp]-NH2; disulfide 2-7 (inferred); N-terminus assumed)
2,0.005,CC[C@H](C)[C@H](NC(=O)[C@@H]1CCCN1C(=O)CNC(=O)[C@H](CCCCNC(=O)COCCOCCNC(=O)COCCOCCNC(=O)CC[C@H](NC(=O)CCCCCCCCCCCCCCCCC(=O)O)C(=O)O)NC(=O)[C@H](CC(N)=O)NC(=O)[C@H](CC(N)=O)NC(=O)[C@H](CO)NC(=O)[C@H](CO)NC(=O)[C@H](Cc1c[nH]cn1)NC(=O)[C@H](CCCNC(=N)N)NC(=O)[C@H](CC(C)C)NC(=O)[C@H](Cc1ccccc1)NC(=O)[C@H](CC(=O)O)NC(=O)[C@H](C)NC(=O)[C@H](CC(C)C)NC(=O)[C@H](CCCNC(=N)N)NC(=O)[C@H](CCC(N)=O)NC(=O)[C@@H](NC(=O)[C@H](C)NC(=O)[C@@H]1CSSC[C@H](NC(=O)[C@@H](N)CCCNC(=N)N)C(=O)N[C@@H](CC(N)=O)C(=O)N[C@@H]([C@@H](C)O)C(=O)N[C@@H](C)C(=O)N[C@@H]([C@@H](C)O)C(=O)N1)[C@@H](C)O)C(=O)N[C@@H](CC(C)C)C(=O)N1CCC[C@H]1C(=O)N1CCC[C@H]1C(=O)N[C@H](C(=O)N[C@@H](CC(N)=O)C(=O)N[C@H](C(=O)NCC(=O)N[C@@H](CO)C(=O)N[C@@H](CC(N)=O)C(=O)N[C@H](C(=O)N1C[C@H](O)C[C@H]1C(N)=O)[C@@H](C)O)C(C)C)[C@@H](C)O [PD085] (H-RCNTATCATQRLADFLRHSSNNK([AEEA-AEEA-γGlu-C18 diacid])GPILPPTNVGSNT[Hyp]-NH2; disulfide 2-7)
3,0.016,CC[C@H](C)[C@H](NC(=O)[C@@H]1CCCN1C(=O)CNC(=O)[C@H](CC(C)C)NC(=O)[C@H](CC(N)=O)NC(=O)[C@H](CCCCNC(=O)CC[C@H](NC(=O)CCCCCCCCCCCCCCCCC(=O)O)C(=O)O)NC(=O)[C@H](CO)NC(=O)[C@H](CO)NC(=O)[C@H](Cc1c[nH]cn1)NC(=O)[C@H](CCCNC(=N)N)NC(=O)[C@H](CC(C)C)NC(=O)[C@H](Cc1ccccc1)NC(=O)[C@H](CC(=O)O)NC(=O)[C@H](C)NC(=O)[C@H](CC(C)C)NC(=O)[C@H](CCCNC(=N)N)NC(=O)[C@H](CCC(N)=O)NC(=O)[C@@H](NC(=O)[C@H](C)NC(=O)[C@@H]1CSSC[C@H](NC(=O)[C@@H](N)CCCNC(=N)N)C(=O)N[C@@H](CC(N)=O)C(=O)N[C@@H]([C@@H](C)O)C(=O)N[C@@H](C)C(=O)N[C@@H]([C@@H](C)O)C(=O)N1)[C@@H](C)O)C(=O)N[C@@H](CC(C)C)C(=O)N1CCC[C@H]1C(=O)N1CCC[C@H]1C(=O)N[C@H](C(=O)N[C@@H](CC(N)=O)C(=O)N[C@H](C(=O)NCC(=O)N[C@@H](CO)C(=O)N[C@@H](CC(N)=O)C(=O)N[C@H](C(=O)N1C[C@H](O)C[C@H]1C(N)=O)[C@@H](C)O)C(C)C)[C@@H](C)O [PD092] (H-RCNTATCATQRLADFLRHSSK([γGlu-C18 diacid])NLGPILPPTNVGSNT[Hyp]-NH2; disulfide 2-7)
